The results in this text go back to patent publication US11660331B2, “Heroin vaccine” (THE SCRIPPS RESEARCH INSTITUTE, priority 2017, dated 2023).

The test relates to anti-heroin polyclonal antibodies from Group G6. Nature of the test: SPR competitive binding assay, Her-BSA-loaded sensor chip (Biacore 3000). Also noted: species or system mouse. To be noted: sera from Group G6 (vaccine stored as liquid at RT for 30 days). (In SPR one partner is held on a chip, and binding of the other changes the refractive index at the surface.)

On to `CN1CC[C@]23c4c5ccc(O)c4O[C@H]2[C@@H](O)C=C[C@H]3[C@H]1C5` [morphine], for which the “cross-reactivity to the polyclonal antibodies” value is listed as “low cross-reactivity”.
